The nature of data set [1]: Fluorescence quantum yield in DMF. Format: physicochemical. The conditions noted are these: room temperature, calculated using porphyrin 3 as standard (0.102).
The test system of data set [2] is HEp2 cells. Put plainly: Time-dependent cellular uptake. The data set is classed as cell-based, human. The conditions noted are these: 10 μM; for cellular accumulation compared with MPIX 3: all time points over 24 h.
Data set [3] has as its target EGFR extracellular domain (Homo sapiens, UniProt P00533). Nature of the data set: SPR binding to immobilized EGFR. The settings on record: SPR sensorgram, 400 to 500 s, 100 μM. Background: In SPR one partner is held on a chip, and binding of the other changes the refractive index at the surface.
The subject of data set [4] is HEp2 cells. Put plainly: Phototoxicity, Cell Titer Blue assay. Format: cell-based, human. The settings on record: 24 h. (In general: Resazurin is reduced to fluorescent resorufin, in cell work by metabolically active cells.)
The conditions of data set [5]: reference standard value; cited from earlier work.

These results are taken from publication PMC5058426 (Journal of porphyrins and phthalocyanines, 2016).

Chain of EGFR extracellular domain (P00533 25-645 limits assumed): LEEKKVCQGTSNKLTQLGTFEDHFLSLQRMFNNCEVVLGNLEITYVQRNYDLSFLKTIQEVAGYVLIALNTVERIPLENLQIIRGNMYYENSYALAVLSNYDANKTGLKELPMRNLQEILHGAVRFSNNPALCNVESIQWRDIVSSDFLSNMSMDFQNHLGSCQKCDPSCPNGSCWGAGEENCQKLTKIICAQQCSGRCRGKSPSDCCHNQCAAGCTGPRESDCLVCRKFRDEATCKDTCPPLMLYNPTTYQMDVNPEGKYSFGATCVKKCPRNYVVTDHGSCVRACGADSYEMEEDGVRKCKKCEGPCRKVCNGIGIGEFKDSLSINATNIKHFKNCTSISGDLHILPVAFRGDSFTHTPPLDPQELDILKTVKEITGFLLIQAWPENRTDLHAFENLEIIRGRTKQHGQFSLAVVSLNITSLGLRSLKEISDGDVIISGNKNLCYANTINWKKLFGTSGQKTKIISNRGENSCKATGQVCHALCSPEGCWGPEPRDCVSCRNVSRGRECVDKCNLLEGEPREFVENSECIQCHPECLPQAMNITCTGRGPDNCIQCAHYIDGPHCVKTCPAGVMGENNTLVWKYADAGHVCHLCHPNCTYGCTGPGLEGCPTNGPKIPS

In the case of `CCC1=C(C)c2cc3[nH]c(cc4nc(cc5[nH]c(cc1n2)c(C)c5CCC(=O)NCC(=O)N[C@@H](Cc1ccc(O)cc1)C(=O)N[C@@H](Cc1c[nH]cn1)C(=O)N[C@@H](Cc1c[nH]c2ccccc12)C(=O)N[C@@H](Cc1ccc(O)cc1)C(=O)NCC(=O)N[C@@H](Cc1ccc(O)cc1)C(=O)N[C@H](C(=O)N1CCC[C@H]1C(=O)N[C@@H](CCC(N)=O)C(=O)N[C@@H](CC(N)=O)C(=O)N[C@H](C(=O)N[C@H](C(N)=O)[C@@H](C)CC)C(C)C)[C@@H](C)O)C(CCC(=O)O)=C4C)c(C)c3CC` [Compound 5], in data set [1], the “Φf (fluorescence quantum yield)” value is listed as 0.124. In addition, the “cellular accumulation compared with MPIX 3” value in the data set on HEp2 cells [2] is listed as “much larger extent than MPIX 3”. Also, in data set [3], the “dissociation rate from EGFR” value is recorded as “slower dissociation rates”.
As to `CCC1=C(C)c2cc3[nH]c(cc4nc(cc5[nH]c(cc1n2)c(C)c5CCC(=O)N[C@@H](CC(C)C)C(=O)N[C@@H](C)C(=O)N[C@@H](CCCNC(=N)N)C(=O)N[C@@H](CC(C)C)C(=O)N[C@@H](CC(C)C)C(=O)N[C@H](C(N)=O)[C@@H](C)O)C(CCC(=O)N[C@@H](CC(C)C)C(=O)N[C@@H](C)C(=O)N[C@@H](CCCNC(=N)N)C(=O)N[C@@H](CC(C)C)C(=O)N[C@@H](CC(C)C)C(=O)N[C@H](C(N)=O)[C@@H](C)O)=C4C)c(C)c3CC` [Compound 4], 50 µM corresponded to half-maximal inhibition in the data set on HEp2 cells [4] (IC50). In the data set on HEp2 cells [2], the “cellular accumulation compared with MPIX 3” value is “much larger extent than MPIX 3”. Further, the “cellular accumulation ranking at early times” value with HEp2 cells [2] (times < 4 h) is “accumulated the most”.
Turning to LARLLT [Compound 7], in data set [1], the “Φf (fluorescence quantum yield)” value was 0.124. In the data set on HEp2 cells [2], the “cellular accumulation compared with MPIX 3” value is reported as “accumulated significantly less”.
In the case of GYHWYGYTPQNVI [Compound 8], the “Φf (fluorescence quantum yield)” value in data set [1] was 0.132. Also, the “cellular uptake relative to MPIX 3” value with HEp2 cells [2] (after 24 h) is given as “about 8 fold”. The “cellular accumulation compared with MPIX 3” value with HEp2 cells [2] was “much larger extent than MPIX 3”.
On to `CCC1=C(C)c2cc3[nH]c(cc4[nH]c(cc5nc(cc1n2)C(C)=C5CC)c(C)c4CCC(=O)O)c(CCC(=O)O)c3C` [Compound 3, mesoporphyrin IX], for which, in data set [5], the “ΦF (fluorescence quantum yield)” value is recorded as 0.102.
